Data: publication PMC9508125, “The evolutionary advantage of an aromatic clamp in plant family 3 glycoside exo-hydrolases” (Nature Communications, 2022)
Positions count from the first letter of the chain named.

What was measured:
Type in all cases: biochemical
[1] = molecular target: T1, WT HvExoI (Hordeum vulgare, UniProt Q9XEI3); assay: Steady-state apparent kinetic constants with substrates; details: substance is the substrate
Method: Dependency of activities of WT and mutant HvExoI on pH (McIlvaine buffers in the pH range of 3.5–8.5 at 30 °C) and temperature (100 mM sodium acetate buffer, pH 5.25, temperature range 0–80 °C, 15 min incubations) were determined using 0.2% (w/v) 4NP-Glc[21],[59]. Relative rates of hydrolysis of β-linked poly-, oligosaccharides, and aryl-glucosides were determined using near-homogenous HvExoI at 50 pmoles. […] Kinetic parameters were calculated from the analyses of Michaelis-Menten plots with Grafit 7.0.3[62] and processed by a proportional weighted fit, using nonlinear regression. The relative rates of hydrolysis, kinetic, and inhibition data were rounded to one or two decimal points (Supplementary Tables 2–4).

[2] = molecular target: T2, HvExoI W286F mutant (Hordeum vulgare, UniProt Q9XEI3, W311F); assay: Relative rates of hydrolysis of poly-, oligosaccharides and aryl-glycosides; details: substance is the substrate, nd = activity not detected
T2 sequence (Q9XEI3 26-630 W311F): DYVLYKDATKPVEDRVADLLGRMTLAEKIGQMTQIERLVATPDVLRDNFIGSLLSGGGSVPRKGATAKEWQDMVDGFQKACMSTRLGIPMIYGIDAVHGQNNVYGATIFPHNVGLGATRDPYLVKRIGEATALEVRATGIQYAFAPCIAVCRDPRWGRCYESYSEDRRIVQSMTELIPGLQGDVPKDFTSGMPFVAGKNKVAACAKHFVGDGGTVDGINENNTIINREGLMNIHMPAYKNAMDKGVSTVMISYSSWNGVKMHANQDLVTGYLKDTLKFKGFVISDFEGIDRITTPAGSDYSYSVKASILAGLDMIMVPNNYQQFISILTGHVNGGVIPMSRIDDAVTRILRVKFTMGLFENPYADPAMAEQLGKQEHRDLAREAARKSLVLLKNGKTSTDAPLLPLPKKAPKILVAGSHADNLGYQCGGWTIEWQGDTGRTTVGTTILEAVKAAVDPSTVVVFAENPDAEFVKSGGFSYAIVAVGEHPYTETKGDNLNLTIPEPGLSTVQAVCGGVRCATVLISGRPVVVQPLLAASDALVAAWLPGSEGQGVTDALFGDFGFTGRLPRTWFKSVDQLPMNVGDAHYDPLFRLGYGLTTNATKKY
In short: (§1)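 Near-homogeneous HvExoI at 50 pmoles was used to compare hydrolysis rates across β-linked glycosides. Kinetic parameters were obtained by weighted nonlinear Michaelis-Menten regression.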

[3] = molecular target: T3, HvExoI W434A mutant (Hordeum vulgare, UniProt Q9XEI3, W459A); assay: as above; details: substance is the substrate, nd = activity not detected
T3 sequence (Q9XEI3 26-630 W459A): T2 sequence (Q9XEI3 26-630 W311F) with F286W, W434A
In short: as §1

[4] = molecular target: T4, HvExoI W434Y mutant (Hordeum vulgare, UniProt Q9XEI3, W459Y); assay: as above; details: substance is the substrate, nd = activity not detected
T4 sequence (Q9XEI3 26-630 W459Y): T2 sequence (Q9XEI3 26-630 W311F) with F286W, W434Y
In short: as §1

[5] = molecular target: T5, HvExoI W434H mutant (Hordeum vulgare, UniProt Q9XEI3, W459H); assay: as above; details: substance is the substrate
T5 sequence (Q9XEI3 26-630 W459H): T2 sequence (Q9XEI3 26-630 W311F) with F286W, W434H
In short: as §1

[6] = molecular target: T1, WT HvExoI; assay: as above; details: substance is the substrate, HvExoI at 50 pmoles, nd = activity not detected
In short: as §1

T1 sequence (Q9XEI3 entry or part of it): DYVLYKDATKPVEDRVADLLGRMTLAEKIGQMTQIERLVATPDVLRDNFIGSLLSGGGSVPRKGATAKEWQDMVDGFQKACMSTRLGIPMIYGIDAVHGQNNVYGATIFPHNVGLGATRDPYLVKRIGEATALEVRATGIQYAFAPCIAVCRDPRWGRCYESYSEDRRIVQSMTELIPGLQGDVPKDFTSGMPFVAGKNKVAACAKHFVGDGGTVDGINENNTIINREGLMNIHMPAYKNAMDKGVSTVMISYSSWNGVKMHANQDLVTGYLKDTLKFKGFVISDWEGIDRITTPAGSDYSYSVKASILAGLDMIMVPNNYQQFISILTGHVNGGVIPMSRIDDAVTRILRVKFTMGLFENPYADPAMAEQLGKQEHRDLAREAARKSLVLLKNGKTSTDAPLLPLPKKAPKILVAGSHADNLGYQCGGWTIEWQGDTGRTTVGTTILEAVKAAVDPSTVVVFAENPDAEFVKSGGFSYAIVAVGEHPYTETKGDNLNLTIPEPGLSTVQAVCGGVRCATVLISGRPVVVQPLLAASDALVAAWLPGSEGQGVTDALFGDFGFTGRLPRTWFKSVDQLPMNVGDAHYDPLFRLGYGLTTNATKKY

Compound | Km [1] [µM] | kcat [1] [s⁻¹] | Activity (relative rate of hydrolysis) [2] [μmole/min per mg protein] | Activity (relative rate of hydrolysis) [3] | Activity (relative rate of hydrolysis) [4] [μmole/min per mg protein] | Activity (relative rate of hydrolysis) [5] [μmole/min per mg protein] | Activity (relative rate of hydrolysis) [6] [μmole/min per mg protein]
OC[C@H]1O[C@@H](O[C@H]2[C@H](O)[C@@H](CO)OC(O)[C@@H]2O)[C@H](O)[C@@H](O)[C@@H]1O (stereo partly shown) [Laminaribiose] | 1300 ± 120 | 54.2 ± 6.9 | 0.6 ± 0.04 | 0.5 ± 0.03 μmole/min per mg protein | 1.1 ± 0.1 | 0.8 ± 0.04 | –
OC[C@H]1O[C@@H](O[C@@H]2[C@@H](O)[C@H](O[C@@H]3[C@@H](O)[C@H](O[C@@H]4[C@@H](O)[C@H](O[C@@H]5[C@@H](O)[C@H](O)O[C@H](CO)[C@H]5O)O[C@H](CO)[C@H]4O)O[C@H](CO)[C@H]3O)O[C@H](CO)[C@H]2O)[C@H](O)[C@@H](O)[C@@H]1O [Laminaripentaose] | – | – | 1.0 ± 0.01 | 1.0 ± 0.1 μmole/min per mg protein | 1.5 ± 0.1 | 1.5 ± 0.1 | 11.7 ± 0.5
OC[C@H]1O[C@@H](O[C@@H]2[C@@H](O)[C@H](O[C@@H]3[C@@H](O)[C@H](O[C@H]4[C@H](O)[C@@H](CO)OC(O)[C@@H]4O)O[C@H](CO)[C@H]3O)O[C@H](CO)[C@H]2O)[C@H](O)[C@@H](O)[C@@H]1O (stereo partly shown) [Laminaritetraose] | – | – | 1.1 ± 0.1 | 1.1 ± 0.1 μmole/min per mg protein | 1.3 ± 0.1 | 1.4 ± 0.1 | 12.3 ± 0.5
OC[C@H]1O[C@@H](O[C@@H]2[C@@H](O)[C@H](O[C@H]3[C@H](O)[C@@H](CO)OC(O)[C@@H]3O)O[C@H](CO)[C@H]2O)[C@H](O)[C@@H](O)[C@@H]1O (stereo partly shown) [Laminaritriose] | – | – | 1.3 ± 0.01 | 0.9 ± 0.1 μmole/min per mg protein | 1.4 ± 0.2 | 1.5 ± 0.04 | 12.4 ± 0.3
laminarin | 200 ± 20 | 42.1 ± 7.6 | 1.1 ± 0.1 | no activity | 0.7 ± 0.03 | 0.7 ± 0.02 | 54.4 ± 0.5
